Among the data in US20230000842A1, “METHODS OF TREATING CARTILAGE DISORDERS THROUGH INHIBITION OF CLK AND DYRK” (SAMUMED, LLC, priority 2019, published 2023) are Emax and EC50 values, retold here.

Test [1] deals with primary human mesenchymal stem cells (hMSCs). The experiment in a line: Chondrogenesis screening using primary human mesenchymal stem cells. It counts as cell-based. Conditions: Homo sapiens, Mesenchymal stem cells, hMSC chondrogenesis; for Emax: maximum activity relative to TGF-β3 (10 ng/mL) positive control, read-out: Max. Activity as % TGF-β3 activity; for EC50: concentration required to induce 50% levels of chondrogenesis with TGF-β3 as positive control, read-out: Conc (nM) of 50% TGF-β3 activity. The gist of the method: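 Primary hMSCs at passage 3–6 were treated across compound concentrations, with TGF-β3 as positive control. Chondrogenic nodule area per well was normalized to 3 DMSO wells on the same plate (fold over DMSO, 2–3 replicates). EC50, maximum activity and the dose reaching it were derived.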

A further test addresses CLK2 kinase (Homo sapiens, UniProt P49760). The experiment in a line: CLK2 kinase activity assay (Z-lyte FRET).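 Also: FRET read-out as coumarin to fluorescein emission ratio, unphosphorylated peptide as 0% and phosphorylated peptide as 100% controls, duplicate reactions, non-linear regression fit of dose-response curves.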 Conditions: Z-lyte Ser/Thr 6 peptide, 60 μM ATP, 1 h at room temperature. The class given is biochemical.
The subject of test [2] is Wnt pathway activity (SW480 colon carcinoma cells stably expressing the Sp5-Luc reporter). Description: Wnt pathway activity screening assay (Sp5-Luc reporter gene assay). Conditions: Homo sapiens, SW480, Table 4; SW480 cells stably expressing Sp5-Luc reporter, 10-point dose-response from 10 μM, 36 to 48 hours.
A further test deals with CLK3 kinase (Homo sapiens, UniProt P49761). The experiment in a line: CLK3 kinase activity assay (Z-lyte FRET).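 Also: kinase activity read as coumarin/fluorescein emission ratio by FRET, unphosphorylated peptide as 0% and phosphorylated peptide as 100% control, values from non-linear regression of dose-response curves.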 The class given is biochemical. The conditions noted are these: Z-lyte Ser/Thr 18 peptide, 156 μM ATP, 1 h at room temperature.
CLK3 kinase, sequence (P49761 whole entry): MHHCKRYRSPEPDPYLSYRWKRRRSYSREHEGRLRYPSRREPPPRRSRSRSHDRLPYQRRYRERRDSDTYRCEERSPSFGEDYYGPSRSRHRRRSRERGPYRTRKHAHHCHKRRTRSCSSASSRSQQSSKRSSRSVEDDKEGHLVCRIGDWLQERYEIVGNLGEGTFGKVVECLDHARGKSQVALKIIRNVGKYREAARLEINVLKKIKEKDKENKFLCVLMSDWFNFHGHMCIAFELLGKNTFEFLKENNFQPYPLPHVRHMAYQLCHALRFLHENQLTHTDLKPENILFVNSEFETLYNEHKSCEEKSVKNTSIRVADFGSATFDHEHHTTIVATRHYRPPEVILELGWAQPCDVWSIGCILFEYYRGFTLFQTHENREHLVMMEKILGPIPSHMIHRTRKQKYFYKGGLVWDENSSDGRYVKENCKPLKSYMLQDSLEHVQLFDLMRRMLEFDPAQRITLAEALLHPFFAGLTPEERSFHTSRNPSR

CLK2 kinase, sequence (P49760 whole entry): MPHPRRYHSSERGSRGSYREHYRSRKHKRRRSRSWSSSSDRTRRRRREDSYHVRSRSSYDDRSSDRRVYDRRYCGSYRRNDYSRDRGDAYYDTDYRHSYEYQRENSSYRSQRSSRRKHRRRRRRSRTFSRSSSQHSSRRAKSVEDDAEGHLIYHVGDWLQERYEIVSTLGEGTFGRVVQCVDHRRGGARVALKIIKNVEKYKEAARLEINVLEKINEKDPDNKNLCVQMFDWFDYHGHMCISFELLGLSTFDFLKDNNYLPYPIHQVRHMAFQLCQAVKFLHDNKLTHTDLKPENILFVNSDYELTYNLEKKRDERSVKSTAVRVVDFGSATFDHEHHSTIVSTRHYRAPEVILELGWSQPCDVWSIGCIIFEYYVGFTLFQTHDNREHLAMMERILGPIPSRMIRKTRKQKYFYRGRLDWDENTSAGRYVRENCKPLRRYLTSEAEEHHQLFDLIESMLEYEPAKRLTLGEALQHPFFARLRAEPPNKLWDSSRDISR

Regarding `CS(=O)(=O)NCc1cc(F)cc(-c2cncc3[nH]c(-c4n[nH]c5ncc(-c6cncc(CN7CCCCC7)c6)cc45)cc23)c1` [compound 535], the Emax in test [1] is 22.7%. Further, the EC50 came out at 6 nM on CLK2 kinase, 1850 nM in test [2] and 53 nM on CLK3 kinase.

For `Nc1cncc(-c2cnc3[nH]nc(-c4cc5c(-c6ccccc6F)nccc5[nH]4)c3c2)c1` [compound 321], the EC50 in test [1] came to 30 nM; on CLK2 kinase, 7 nM; in test [2] it was 197 nM; on CLK3 kinase, 67 nM. Moreover, in test [1], the Emax stood at 86%.

Take `Cc1ccncc1-c1ccc2[nH]nc(-c3cc4c(-c5cccnc5)cncc4[nH]3)c2n1` [compound 346]: the EC50 in test [1] was 10 nM; on CLK2 kinase it was 4 nM; in test [2], above 10000 nM; on CLK3 kinase it was 133 nM. Moreover, in test [1], the Emax came out at 149%.

In the case of `CC(C)Nc1cncc(-c2cnc3[nH]nc(-c4cc5c(-c6ccccc6F)nccc5[nH]4)c3c2)c1` [compound 332], the EC50 in test [1] amounted to 10 nM; at CLK2 kinase it was 6 nM; in test [2] it was 435 nM; at CLK3 kinase, 196 nM. For the same compound, the Emax in test [1] is 75.8%.

Take `CN(C)c1cncc(-c2ccc3[nH]nc(-c4nc5c(-c6cccs6)cncc5[nH]4)c3n2)c1` [compound 258]: the EC50 in test [1] was found to be 10 nM; on CLK2 kinase it was 2 nM; in test [2] it was 710 nM; on CLK3 kinase it was 83 nM. Further, in test [1], the Emax is 65.6%.

With `c1cncc(-c2ccc3[nH]nc(-c4nc5c(-c6cccnc6)cncc5[nH]4)c3n2)c1` [compound 184], the EC50 in test [1] was 30 nM; on CLK2 kinase, 1 nM; in test [2] it was above 10000 nM; at CLK3 kinase, 177 nM. The Emax in test [1] came to 83.8%.

As to `CN(C)Cc1cncc(-c2ccc3[nH]nc(-c4cc5c(-c6ccccc6F)cncc5[nH]4)c3n2)c1` [compound 337], the EC50 in test [1] came out at 30 nM; at CLK2 kinase, 2 nM; in test [2], 1370 nM; at CLK3 kinase, 109 nM. Further, the Emax in test [1] came to 50.6%.

Consider `CN1CCN(c2nccc3[nH]c(-c4n[nH]c5ccc(-c6cncc(NC(=O)CC7CCNCC7)c6)cc45)cc23)CC1` [compound 484], for which, in test [1], the Emax turned out to be 42.8%. Further, the figures for the EC50 (at CLK2 kinase; in test [2]; on CLK3 kinase) were 6 nM, above 10000 nM and 428 nM, respectively.

Regarding `O=C(Nc1cncc(-c2ccc3[nH]nc(-c4cc5c(-c6ccccc6F)nccc5[nH]4)c3n2)c1)C1CC1` [compound 330], the Emax in test [1] was 24.8%. Also, the EC50 on CLK2 kinase is 12 nM; in test [2], 642 nM; at CLK3 kinase, 109 nM.

Regarding `CCCCC(=O)Nc1cncc(-c2cnc3[nH]nc(-c4cc5c(-c6ccncc6)cncc5[nH]4)c3c2)c1` [compound 386], the Emax in test [1] was 70.4%. In addition, the EC50 was 8 nM at CLK2 kinase, above 10000 nM in test [2] and 201 nM at CLK3 kinase.

Consider `CS(=O)(=O)NCc1cc(F)cc(-c2nccc3[nH]c(-c4n[nH]c5cnc(-c6cncc(CNCC7CCCC7)c6)cc45)cc23)c1` [compound 534], for which the EC50 in test [1] is 30 nM; on CLK2 kinase, 4 nM; in test [2] it was above 10000 nM; on CLK3 kinase, 471 nM. Also, the Emax in test [1] turned out to be 52.3%.

On to `CCC(=O)Nc1cncc(-c2ccc3[nH]nc(-c4nc5c(N6CCCCC6)ccnc5[nH]4)c3n2)c1` [compound 207], for which, in test [1], the Emax came to 38.3%. Besides, the EC50 is 3 nM on CLK2 kinase, above 10000 nM in test [2] and 1290 nM on CLK3 kinase.

Consider `O=C(Nc1cncc(-c2ccc3[nH]nc(-c4cc5ccncc5[nH]4)c3n2)c1)C1CCCC1` [compound 430], for which the EC50 was 30 nM in test [1], 7 nM on CLK2 kinase, 2630 nM in test [2] and 147 nM on CLK3 kinase. For the same compound, the Emax in test [1] worked out at 50.3%.

Regarding `CC(C)(C)C(=O)Nc1cncc(-c2ccc3[nH]nc(-c4nc5c(-c6ccc(F)s6)ccnc5[nH]4)c3c2)c1` [compound 262], the EC50 in test [1] was 30 nM; at CLK2 kinase it was 85 nM; in test [2], 16.7 nM; on CLK3 kinase, 754 nM. Also, the Emax in test [1] was found to be 120%.

As to `c1cncc(-c2cc3c(-c4nc5c(-c6cccnc6)cccc5[nH]4)n[nH]c3cn2)c1` [compound 179], the EC50 in test [1] is 100 nM; at CLK2 kinase, 11 nM; in test [2] it was 92.4 nM; on CLK3 kinase it was 969 nM. Moreover, the Emax in test [1] came to 93%.

Turning to `c1cncc(-c2cnc3[nH]nc(-c4cc5cccnc5[nH]4)c3c2)c1` [compound 411], the Emax in test [1] came to 11%. Besides, the EC50 came to 5 nM at CLK2 kinase, 1060 nM in test [2] and 351 nM on CLK3 kinase.

In the case of `CC(C)(C)C(=O)Nc1cncc(-c2cnc3[nH]nc(-c4cc5c(-c6ccncc6)cncc5[nH]4)c3c2)c1` [compound 391], the Emax in test [1] stood at 33.6%. Also, the EC50 at CLK2 kinase was 4 nM; in test [2] it was above 10000 nM; at CLK3 kinase, 62 nM.

Regarding `CN(C)Cc1cncc(-c2ccc3[nH]nc(-c4cc5c(N6CCCCC6)nccc5[nH]4)c3c2)c1` [compound 465], the Emax in test [1] amounted to 220%. The EC50 on CLK2 kinase stood at 2 nM; in test [2], 4710 nM; on CLK3 kinase it was 293 nM.

On to `CN(C)Cc1cncc(-c2cc3c(-c4nc5c(-c6cccc(F)c6)cccc5[nH]4)n[nH]c3cn2)c1` [compound 135], for which the EC50 in test [1] worked out at 100 nM; at CLK2 kinase, 4 nM; in test [2] it was 82.2 nM; on CLK3 kinase it was 41 nM. The Emax in test [1] amounted to 311%.

Take `CC(C)CC(=O)Nc1cncc(-c2cnc3[nH]nc(-c4cc5c(-c6cc(F)cc(CNS(C)(=O)=O)c6)nccc5[nH]4)c3c2)c1` [compound 522]: the EC50 in test [1] came to 300 nM; at CLK2 kinase, 8 nM; in test [2] it was 1510 nM; on CLK3 kinase, 48 nM. Further, the Emax in test [1] came to 52%.

As to `CC(C)Nc1cncc(-c2cnc3[nH]nc(-c4cc5c(-c6cccnc6)ccnc5[nH]4)c3c2)c1` [compound 362], the EC50 in test [1] is 10 nM; on CLK2 kinase, 4 nM; in test [2] it was above 10000 nM; on CLK3 kinase, 292 nM. Besides, in test [1], the Emax was determined as 135%.

As for `CC(C)C(=O)Nc1cncc(-c2cc3c(-c4cc5c(-c6cccnc6)cccc5[nH]4)n[nH]c3cn2)c1` [compound 350], the EC50 in test [1] was determined as 10 nM; on CLK2 kinase, 11 nM; in test [2], 275 nM; at CLK3 kinase, 1900 nM. In addition, in test [1], the Emax came out at 201%.

`CCC(=O)Nc1cncc(-c2ccc3[nH]nc(-c4cc5c(-c6cccc(F)c6)ccnc5[nH]4)c3c2)c1` [compound 304]: the Emax in test [1] was found to be 167%. In addition, the EC50 is 16 nM on CLK2 kinase, 13.2 nM in test [2] and 21 nM on CLK3 kinase.

For `CN1CCN(c2ccnc3[nH]c(-c4n[nH]c5ccc(-c6cncc(NC(=O)c7ccccc7)c6)nc45)cc23)CC1` [compound 488], the EC50 was found to be 10 nM in test [1], 3 nM on CLK2 kinase, 6100 nM in test [2] and 2530 nM on CLK3 kinase. In addition, the Emax in test [1] was found to be 61.8%.

Consider `CCNCc1cncc(-c2ccc3[nH]nc(-c4cc5ccccc5[nH]4)c3c2)c1` [compound 438], for which the EC50 in test [1] came to 10 nM; at CLK2 kinase, 4 nM; in test [2] it was 395 nM; at CLK3 kinase, 269 nM. For the same compound, in test [1], the Emax amounted to 532%.

Turning to `O=C(Nc1cncc(-c2cc3c(-c4cc5cnccc5[nH]4)n[nH]c3cn2)c1)c1ccccc1` [compound 437], the EC50 was found to be 10 nM in test [1], 2 nM at CLK2 kinase, 580 nM in test [2] and 62 nM on CLK3 kinase. Further, the Emax in test [1] came to 152%.

Consider `c1cncc(-c2ccnc3[nH]c(-c4n[nH]c5cnc(-c6cncc(CN7CCCC7)c6)cc45)cc23)c1` [compound 369], for which the Emax in test [1] is 16.7%. Further, the EC50 at CLK2 kinase is 9 nM; in test [2], above 10000 nM; at CLK3 kinase, 102 nM.

For the compound `CS(=O)(=O)NCc1cc(F)cc(-c2nccc3[nH]c(-c4n[nH]c5ncc(-c6cncc(OCc7ccccc7)c6)cc45)cc23)c1` [compound 537], the Emax in test [1] stood at 20.6%. Moreover, the values for the EC50 (on CLK2 kinase; in test [2]; on CLK3 kinase) were 13 nM, 3990 nM and 329 nM, respectively.

On to `CN1CCN(c2ccnc3[nH]c(-c4n[nH]c5ncc(-c6cn[nH]c6)cc45)cc23)CC1` [compound 497], for which, in test [1], the Emax turned out to be 20.1%. In addition, the EC50 on CLK2 kinase was 5 nM; in test [2], above 10000 nM; at CLK3 kinase, 678 nM.

For the compound `COc1cncc(-c2ccc3[nH]nc(-c4nc5c(-c6cccc(F)c6)nccc5[nH]4)c3n2)c1` [compound 148], the EC50 was 20.6 nM in test [1], 4 nM on CLK2 kinase, 120 nM in test [2] and 124 nM at CLK3 kinase. Moreover, the Emax in test [1] worked out at 60.4%.

In the case of `O=C(Nc1cncc(-c2ccc3[nH]nc(-c4nc5c(-c6ccccc6F)ccnc5[nH]4)c3n2)c1)C(F)(F)F` [compound 176], the EC50 in test [1] is 10 nM; at CLK2 kinase, 6 nM; in test [2] it was above 10000 nM; at CLK3 kinase it was 149 nM. The Emax in test [1] amounted to 74%.
